Measured values published in patent publication US20030144360A1, “Composition and method for modulating BAR/FXR receptor activity” (Allergan Sales, Inc., priority 2001, published 2003).
Values joined by “and” are separate entries in the source; they are usually repeats but may differ in a detail not shown here. Identical values can stand only once.

Tests used:
[1] = system: human AR, mouse PXR, human PXR, ERα, human LXRα, mouse PPARα, mouse PPARγ, mouse PPARδ, human VDR, human TRB, mouse CARβ; assay: Repression of cognate ligand-induced activity of other nuclear receptor/RXR heterodimers (luciferase reporter); assay type: cell-based; details: 1 mM AGN 34 with cognate ligand
Experimental: Resulting chemiluminescence was measured in a luminometer.
Various other nuclear receptor/RXR heterodimers were incubated with the cognate ligand of the non-RXR component of the heterodimer. These were: human AR (androgen receptor), mouse PXR (10 μM pregnenolone-16-carbonitrile), human PXR (10 μM rifampicin), ERα (100 nM 17β-estradiol), human LXRα (30 μM hyodeoxycholic acid methyl ester), mouse PPARα (5 μM Wy 14,643), mouse PPARγ (1 μM rosiglitazone), mouse PPARδ (1 μM carbaprostacyclin), human VDR (100 nM 1,25-dihydroxyvitamin D3) and human TRB (100 nM triiodothyronine). No ligand was added to mouse CARβ which is constitutively active. Each compound was incubated in the presence or absence of 1 mM AGN 34, then assayed for luciferase reporter activity.

HFXR / HRXRop = biological target: T1, HFXR / HRXRop (Homo sapiens, UniProt P19793+Q96RI1); assay: Co-transfection luciferase assay, EcRE × 6 reporter, HFXR + HRXRop;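 further: CV-1 monkey cells transfected with receptor vectors, luciferase reporter and β-galactosidase internal control, exposed to compounds about 40 h, then lysed and luminescence read in a luminometer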
T1 sequence (Q96RI1 1-486): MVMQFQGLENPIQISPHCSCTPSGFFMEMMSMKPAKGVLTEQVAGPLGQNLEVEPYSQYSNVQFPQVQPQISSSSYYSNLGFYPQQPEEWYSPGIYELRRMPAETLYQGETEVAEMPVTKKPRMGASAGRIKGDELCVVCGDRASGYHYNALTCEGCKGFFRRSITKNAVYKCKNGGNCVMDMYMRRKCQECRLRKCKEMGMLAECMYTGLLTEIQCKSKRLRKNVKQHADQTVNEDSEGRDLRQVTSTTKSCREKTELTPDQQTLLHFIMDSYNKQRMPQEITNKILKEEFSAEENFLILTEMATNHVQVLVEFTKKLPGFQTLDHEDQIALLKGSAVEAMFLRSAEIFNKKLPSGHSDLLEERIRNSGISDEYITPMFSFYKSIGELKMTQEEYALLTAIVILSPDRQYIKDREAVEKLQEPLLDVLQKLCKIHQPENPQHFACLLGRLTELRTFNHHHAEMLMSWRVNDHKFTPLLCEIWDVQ
T1 sequence (P19793 1-462): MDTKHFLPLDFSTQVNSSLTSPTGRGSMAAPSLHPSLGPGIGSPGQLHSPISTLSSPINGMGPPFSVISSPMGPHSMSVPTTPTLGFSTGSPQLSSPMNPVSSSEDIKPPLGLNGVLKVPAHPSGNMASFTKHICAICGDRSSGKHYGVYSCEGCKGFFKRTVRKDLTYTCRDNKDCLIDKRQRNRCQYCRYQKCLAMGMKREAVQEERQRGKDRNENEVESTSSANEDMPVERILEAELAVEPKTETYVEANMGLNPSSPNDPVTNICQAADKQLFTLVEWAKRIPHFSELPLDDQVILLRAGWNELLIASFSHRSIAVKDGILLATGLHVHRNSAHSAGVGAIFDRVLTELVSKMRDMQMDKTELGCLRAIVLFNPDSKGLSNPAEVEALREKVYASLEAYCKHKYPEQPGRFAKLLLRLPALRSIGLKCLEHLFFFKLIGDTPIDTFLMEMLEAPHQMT

GAL-L-hRXRa = biological target: T2, GAL-L-hRXRa (Homo sapiens, UniProt P19793); assay: Co-transfection luciferase assay, MH100 × 4 reporter, GAL-L-hRXRa alone
T2 sequence (P19793 203-462): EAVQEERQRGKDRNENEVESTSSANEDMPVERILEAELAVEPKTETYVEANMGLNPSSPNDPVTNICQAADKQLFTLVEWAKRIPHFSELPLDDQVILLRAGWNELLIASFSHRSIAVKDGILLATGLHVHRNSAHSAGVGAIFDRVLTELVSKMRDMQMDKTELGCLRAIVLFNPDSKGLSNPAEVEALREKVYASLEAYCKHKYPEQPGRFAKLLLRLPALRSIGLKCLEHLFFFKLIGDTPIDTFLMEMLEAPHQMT

repression of specific ligand-induced activity of other nuclear receptors [1]: unable to repress
Fold Activation (HFXR / HRXRop; 0.1 μM LG268 + 0.01 μM AGN 34): 2.36 fold
Reporter Activity (HFXR / HRXRop; 0.1 μM LG268 + 0.01 μM AGN 34): 0.76
Fold Activation (HFXR / HRXRop; 0.1 μM LG268 + 0.1 μM AGN 34): 1.45 fold
Reporter Activity (HFXR / HRXRop; 0.1 μM LG268 + 0.1 μM AGN 34): 0.47
Fold Activation (HFXR / HRXRop; 0.1 μM LG268 + 1 μM AGN 34): 1.23 fold
Reporter Activity (HFXR / HRXRop; 0.1 μM LG268 + 1 μM AGN 34): 0.40
Fold Activation (HFXR / HRXRop; 0.1 μM LG268 + 3 μM AGN 34): 1.26 fold
Reporter Activity (HFXR / HRXRop; 0.1 μM LG268 + 3 μM AGN 34): 0.41
Fold Activation (HFXR / HRXRop; 0.1 μM LG268 + 10 μM AGN 34): 1.22 fold
Reporter Activity (HFXR / HRXRop; 0.1 μM LG268 + 10 μM AGN 34): 0.39
Fold Activation (HFXR / HRXRop; 10 μM AGN 34 alone): 1.21 fold and 1.35 fold
Reporter Activity (HFXR / HRXRop; 10 μM AGN 34 alone): 0.41 and 0.44
Fold Activation (HFXR / HRXRop; 50 μM CDCA + 0.01 μM AGN 34): 15.00 fold
Reporter Activity (HFXR / HRXRop; 50 μM CDCA + 0.01 μM AGN 34): 5.14
Fold Activation (HFXR / HRXRop; 50 μM CDCA + 0.1 μM AGN 34): 11.73 fold
Reporter Activity (HFXR / HRXRop; 50 μM CDCA + 0.1 μM AGN 34): 4.02
Fold Activation (HFXR / HRXRop; 50 μM CDCA + 1 μM AGN 34): 7.08 fold and 5.51 fold
Reporter Activity (HFXR / HRXRop; 50 μM CDCA + 1 μM AGN 34): 2.42
Fold Activation (HFXR / HRXRop; 50 μM CDCA + 3 μM AGN 34): 5.78 fold
Reporter Activity (HFXR / HRXRop; 50 μM CDCA + 3 μM AGN 34): 1.98
Fold Activation (HFXR / HRXRop; 50 μM CDCA + 10 μM AGN 34): 6.58 fold
Reporter Activity (HFXR / HRXRop; 50 μM CDCA + 10 μM AGN 34): 2.25
Fold Activation (GAL-L-hRXRa; 0.1 μM LG268 + 0.01 μM AGN 34): 33.56 fold
Reporter Activity (GAL-L-hRXRa; 0.1 μM LG268 + 0.01 μM AGN 34): 11.17
Fold Activation (GAL-L-hRXRa; 0.1 μM LG268 + 0.1 μM AGN 34): 8.61 fold
Reporter Activity (GAL-L-hRXRa; 0.1 μM LG268 + 0.1 μM AGN 34): 2.86
Fold Activation (GAL-L-hRXRa; 0.1 μM LG268 + 1 μM AGN 34): 1.07 fold
Reporter Activity (GAL-L-hRXRa; 0.1 μM LG268 + 1 μM AGN 34): 0.36
Fold Activation (GAL-L-hRXRa; 0.1 μM LG268 + 3 μM AGN 34): 1.05 fold
Reporter Activity (GAL-L-hRXRa; 0.1 μM LG268 + 3 μM AGN 34): 0.35
Fold Activation (GAL-L-hRXRa; 0.1 μM LG268 + 10 μM AGN 34): 0.98 fold
Reporter Activity (GAL-L-hRXRa; 0.1 μM LG268 + 10 μM AGN 34): 0.33
Fold Activation (GAL-L-hRXRa; 10 μM AGN 34 alone): 1.14 fold and 1.12 fold
Reporter Activity (GAL-L-hRXRa; 10 μM AGN 34 alone): 0.38 and 0.37
Fold Activation (GAL-L-hRXRa; 50 μM CDCA + 0.01 μM AGN 34): 1.03 fold
Reporter Activity (GAL-L-hRXRa; 50 μM CDCA + 0.01 μM AGN 34): 0.34
Fold Activation (GAL-L-hRXRa; 50 μM CDCA + 0.1 μM AGN 34): 0.92 fold
Reporter Activity (GAL-L-hRXRa; 50 μM CDCA + 0.1 μM AGN 34): 0.31
Reporter Activity (GAL-L-hRXRa; 50 μM CDCA + 1 μM AGN 34): 0.37
Fold Activation (GAL-L-hRXRa; 50 μM CDCA + 3 μM AGN 34): 1.05 fold
Reporter Activity (GAL-L-hRXRa; 50 μM CDCA + 3 μM AGN 34): 0.35
Fold Activation (GAL-L-hRXRa; 50 μM CDCA + 10 μM AGN 34): 1.10 fold
Reporter Activity (GAL-L-hRXRa; 50 μM CDCA + 10 μM AGN 34): 0.37
Structure (SMILES): CCCCCCOc1c(\C(C)=C/C=C/C(C)=C/C(=O)O)cc(C(C)C)cc1C(C)C [AGN 34, (2E, 4E, 6Z)-7-(2-Hexyloxy-3,5-diisopropylphenyl)-3-methylocta-2,4,6-trienoic Acid]
